According to PubChem BioAssay AID1259407 (Chemical Carcinogenesis Research Information System (CCRIS), 2018):
The source made the active and inactive calls. No rule for the calls is given here.

System: CCRIS mutagenicity, Ames/micronucleus/aberration tests
Assay: CCRIS mutagenicity studies
[1] = Test System: AMES SALMONELLA TYPHIMURIUM, Strain/Indicator: TA97, Metabolic Activation: NONE, Method: STANDARD PLATE
[2] = Test System: AMES SALMONELLA TYPHIMURIUM, Strain/Indicator: TA98, Metabolic Activation: NONE, Method: STANDARD PLATE
[3] = Test System: AMES SALMONELLA TYPHIMURIUM, Strain/Indicator: TA100, Metabolic Activation: NONE, Method: STANDARD PLATE
[4] = Test System: AMES SALMONELLA TYPHIMURIUM, Strain/Indicator: TA1535, Metabolic Activation: NONE, Method: STANDARD PLATE

With `O=[N+]([O-])c1ccc(-c2csc(Nc3ccccc3)n2)o1` the mutagenic call (Test System: E. COLI WP2, Strain/Indicator: WP2, Metabolic Activation: NONE, Method: SPOT) was “active; positive”.

In the case of `CC(=O)Nc1ccc(N/N=C2/C(=O)c3ccc(NC(=O)Nc4ccc5c(c4)C=C(S(=O)(=O)O)/C(=N/Nc4ccccc4)C5=O)cc3C=C2S(=O)(=O)O)cc1`, the mutagenic call (Test System: Ames Salmonella typhimurium, Strain/Indicator: TA98, Metabolic Activation: None, Method: Preincubation) is reported as “active; positive”.

With `C[n+]1ccn(COCCC(C)(C)[N+](=O)[O-])c1/C=N/O` the mutagenic call [1] was “inactive; negative”, the mutagenic call (Test System: AMES SALMONELLA TYPHIMURIUM, Strain/Indicator: TA97, Metabolic Activation: S-9, Method: STANDARD PLATE) was “inactive; negative” and the mutagenic call [2] was “inactive; negative”. The mutagenic call (Test System: AMES SALMONELLA TYPHIMURIUM, Strain/Indicator: TA98, Metabolic Activation: S-9, Method: STANDARD PLATE) was “inactive; negative”, the mutagenic call [3] was “inactive; negative” and the mutagenic call (Test System: AMES SALMONELLA TYPHIMURIUM, Strain/Indicator: TA100, Metabolic Activation: S-9, Method: STANDARD PLATE) was “inactive; negative”. For the same compound, the mutagenic call (Test System: AMES SALMONELLA TYPHIMURIUM, Strain/Indicator: TA104, Metabolic Activation: NONE, Method: STANDARD PLATE) was “inactive; negative”, the mutagenic call (Test System: AMES SALMONELLA TYPHIMURIUM, Strain/Indicator: TA104, Metabolic Activation: S-9, Method: STANDARD PLATE) was “inactive; negative” and the mutagenic call [4] was “inactive; negative”. The mutagenic call (Test System: AMES SALMONELLA TYPHIMURIUM, Strain/Indicator: TA1535, Metabolic Activation: S-9, Method: STANDARD PLATE) was “inactive; negative”, the mutagenic call (Test System: AMES SALMONELLA TYPHIMURIUM, Strain/Indicator: TA1537, Metabolic Activation: NONE, Method: STANDARD PLATE) was “inactive; negative” and the mutagenic call (Test System: AMES SALMONELLA TYPHIMURIUM, Strain/Indicator: TA1537, Metabolic Activation: S-9, Method: STANDARD PLATE) was “inactive; negative”. For the same compound, the mutagenic call (Test System: AMES SALMONELLA TYPHIMURIUM, Strain/Indicator: TA1538, Metabolic Activation: NONE, Method: STANDARD PLATE) was “inactive; negative” and the mutagenic call (Test System: AMES SALMONELLA TYPHIMURIUM, Strain/Indicator: TA1538, Metabolic Activation: S-9, Method: STANDARD PLATE) was “inactive; negative”.

In the case of `CC(=O)N(O)c1ccc(Oc2ccccc2)cc1`, the mutagenic call (Test System: AMES SALMONELLA TYPHIMURIUM, Strain/Indicator: TA100, Metabolic Activation: GUINEA PIG, LIVER, S-9, KANECLOR 500, Method: STANDARD PLATE) is reported as “active; positive”, the mutagenic call [3] is reported as “inactive; negative” and the mutagenic call (Test System: AMES SALMONELLA TYPHIMURIUM, Strain/Indicator: TA100, Metabolic Activation: RAT, LIVER, S-9, KANECLOR 500, Method: STANDARD PLATE) is reported as “active; positive”.

For `Cc1cc(C)c(N)c(C)c1N`, the mutagenic call [1] was “inactive; negative”, the mutagenic call (Test System: AMES SALMONELLA TYPHIMURIUM, Strain/Indicator: TA97, Metabolic Activation: RAT, LIVER, S-9, Method: STANDARD PLATE) was “active; positive” and the mutagenic call [2] was “inactive; negative”. The mutagenic call (Test System: AMES SALMONELLA TYPHIMURIUM, Strain/Indicator: TA98, Metabolic Activation: RAT, LIVER, S-9, Method: STANDARD PLATE) was “active; positive”, the mutagenic call [3] was “active; positive” and the mutagenic call (Test System: AMES SALMONELLA TYPHIMURIUM, Strain/Indicator: TA100, Metabolic Activation: RAT, LIVER, S-9, Method: STANDARD PLATE) was “active; positive”. For the same compound, the mutagenic call [4] was “active; positive” and the mutagenic call (Test System: AMES SALMONELLA TYPHIMURIUM, Strain/Indicator: TA1535, Metabolic Activation: RAT, LIVER, S-9, Method: STANDARD PLATE) was “active; positive”.

`COc1cc2nc3cc(N)c(OC)cc3nc2cc1N` was tested, and the mutagenic call (Test System: AMES SALMONELLA TYPHIMURIUM, Strain/Indicator: TA98, Metabolic Activation: S-9, Method: SUSPENSION/PLATE) was “active; positive”.
